pIC50: −log10 of the molar value.
Biological target: CDK2/Cyclin E1 (Homo sapiens, UniProt P24941)
Assay: CDK2/Cyclin E1 Caliper LabChip EZ Reader mobility shift assay
Assay type: biochemical
Design: purchased Eurofins 14-475
Details: read-out: Caliper Assay (CDK2/CCNE1): IC50
Summary of the method: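 Substrate-to-product conversion of fluorescent peptide (1.5 μM final) read by capillary electrophoresis after 100 min reaction, EDTA-quenched. Enzyme (2.5 nM final) and ATP (100 μM final) were preincubated 30 min with inhibitor dilutions first. % activity vs concentration fitted four-parameter for IC50.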

Row | SMILES | pIC50
1 | CNC(=O)[C@@H](NC(=O)[C@H]1CN(C(=O)c2scnc2C2CC2)CC12CN(C(=O)[C@H]1CC1(C)C)C2)[C@@H](C)OCC1CCCCC1 [I-185B] | < 5.00
2 | CNC(=O)[C@@H](NC(=O)[C@@H]1CN(C(=O)c2sc(COC)nc2C)CC12CN(C(=O)[C@H]1CC1(C)C)C2)[C@@H](C)OCC1CCCCC1 [I-162A] | 7.00 to 8.00
3 | CNC(=O)[C@@H](NC(=O)[C@@H]1CN(C(=O)c2cnn(Cc3ccccc3)c2)CC12CN(C(=O)C1(C3CC3)CC1)C2)[C@@H](C)OCc1ccccc1 [I-114A] | 6.00 to 7.00
4 | CNC(=O)[C@@H](NC(=O)[C@@H]1CN(C(=O)c2cnn(Cc3ccc(F)cc3)c2)CC12CN(C(=O)[C@H]1CC1(C)C)C2)[C@@H](C)OCc1ccc(F)cc1 [I-136A] | 7.00 to 8.00
5 | CNC(=O)[C@@H](NC(=O)[C@H]1CN(C(=O)c2cnn(Cc3ccccc3)c2)CC12CN(C(=O)C1(C3CC3)CC1)C2)[C@@H](C)OCc1ccccc1 [I-114B] | < 5.00
6 | CNC(=O)[C@@H](NC(=O)[C@@H]1CN(C(=O)c2cnn(Cc3ccccc3)c2)CC12CN(C(=O)C1(C(F)(F)F)CC1)C2)[C@@H](C)OCc1ccccc1 [I-108A] | 6.00 to 7.00
7 | C[C@@H](OCC1CCOCC1)[C@H](NC(=O)[C@@H]1CN(C(=O)c2cncs2)CC12CN(C(=O)[C@H]1CC1(C)C)C2)C(=O)N1CCC(F)(F)CC1 [I-288] | 7.00 to 8.00
8 | C[C@@H](OCC1CCOCC1)[C@H](NC(=O)[C@@H]1CN(C(=O)c2cn[nH]c2)CC12CN(C(=O)[C@H]1CC1(C)C)C2)C(=O)N1CCC(F)(F)CC1 [I-297] | 7.00 to 8.00
9 | COC[C@H]1CCCN(C(=O)[C@@H](NC(=O)[C@@H]2CN(C(=O)c3cncs3)CC23CN(C(=O)[C@H]2CC2(C)C)C3)[C@@H](C)OC[C@H]2CC[C@H](N)CC2)C1 [I-433] | 5.00 to 6.00
10 | CC1(C)C[C@@H]1C(=O)N1CC2(CN(C(=O)c3cncs3)C[C@H]2C(=O)NC(CO)c2cccc(C3CCC(F)(F)CC3)n2)C1 (stereo partly drawn) [I-419] | 6.00 to 7.00
11 | CNC(=O)[C@@H](NC(=O)[C@H]1CN(C(=O)c2cnn(Cc3ccccc3)c2)CC12CN(C(=O)CC(C)(C)C)C2)[C@@H](C)OCc1ccccc1 [I-62B] | < 5.00
12 | C[C@@H](OCC12CCC(CC1)OC2)[C@H](NC(=O)[C@@H]1CN(C(=O)c2cncs2)CC12CN(C(=O)[C@H]1CC1(C)C)C2)C(=O)N1CCC[C@H](COC(F)(F)F)C1 [I-460] | ≥ 8.00
13 | CNC(=O)C(NC(=O)[C@@H]1CN(C(=O)c2cncs2)CC12CN(C(=O)[C@H]1CC1(C)C)C2)c1cccc(N2CCOCC2)n1 (stereo partly drawn) [I-422] | 5.00 to 6.00
14 | CNC(=O)[C@@H](NC(=O)[C@@H]1CN(C(=O)c2cnn(CC3CC3)c2)CC12CN(C(=O)CC1CC1)C2)[C@@H](C)OCc1ccccc1 [I-53A] | < 5.00
15 | C[C@@H](OCC1CCC(F)(F)CC1)[C@H](NC(=O)[C@@H]1CN(C(=O)c2cncs2)CC12CN(C(=O)[C@H]1CC1(C)C)C2)C(=O)N1CCC(C(F)(F)F)CC1 [I-398] | ≥ 8.00
16 | CNC(=O)[C@@H](NC(=O)[C@H]1CN(C(=O)c2cnn(Cc3ccccc3)c2)CC12CN(C(=O)C1C(C)(C)C1(C)C)C2)[C@@H](C)OCc1ccccc1 [I-89B] | < 5.00
17 | CNC(=O)[C@@H](NC(=O)[C@H]1CN(C(=O)c2cn[nH]c2)CC12CN(C(=O)[C@H]1CC1(C)C)C2)[C@@H](C)OCC1CCCCC1 [I-66B] | 5.00 to 6.00
18 | C[C@@H](OCC1CCC(F)(F)CC1)[C@H](NC(=O)[C@@H]1CN(C(=O)c2cn[nH]c2)CC12CN(C(=O)C1(C(F)(F)F)CC1)C2)C(=O)N1CCC(F)(F)CC1 [I-188A] | 7.00 to 8.00
19 | C[C@@H](OCC1(C(F)(F)F)CC1)[C@H](NC(=O)[C@H]1CN(C(=O)c2cncs2)CC12CN(C(=O)[C@H]1CC1(C)C)C2)C(=O)N1CCC(F)(F)CC1 [I-291] | 6.00 to 7.00
20 | CNC(=O)[C@@H](NC(=O)[C@H]1CN(C(=O)c2cnn(Cc3ccccc3)c2)CC12CN(C(=O)Cc1ccccc1)C2)[C@@H](C)OCc1ccccc1 [I-25B] | < 5.00
21 | COC1CCN(C(=O)[C@@H](NC(=O)[C@@H]2CN(C(=O)c3sc(C)nc3C)CC23CN(C(=O)[C@H]2CC2(C)C)C3)[C@@H](C)OCC23CCC(CC2)OC3)CC1 [I-451] | 7.00 to 8.00
22 | CNC(=O)[C@@H](NC(=O)[C@H]1CN(S(=O)(=O)c2cnn(Cc3ccccc3)c2)CC12CN(C(=O)[C@H]1CC1(C)C)C2)[C@@H](C)OCc1ccccc1 [I-79B] | < 5.00
23 | CC1(C)C[C@@H]1C(=O)N1CC2(CN(C(=O)c3cncs3)C[C@H]2C(=O)NC(c2cccc(C3CCCCC3)n2)C2CCOC2)C1 (stereo partly drawn) [I-493] | 7.00 to 8.00

Other lines, results leading:

Row | pIC50 | SMILES
24 | 5.00 to 6.00 | CN(C(=O)[C@@H]1CCCN(C(=O)[C@@H]2CN(C(=O)c3cnn(Cc4ccccc4)c3)CC23CN(C(=O)[C@H]2CC2(C)C)C3)C1)C1CCCCC1 [I-181]
25 | 5.00 to 6.00 | C[C@@H](OCC1CCCCC1)[C@H](NC(=O)[C@H]1CN(C(=O)c2cnn(Cc3ccccc3)c2)CC12CN(C(=O)[C@H]1CC1(C)C)C2)C(=O)N1CCOCC1 [I-152B]
26 | 5.00 to 6.00 | CNC(=O)[C@@H](NC(=O)[C@@H]1CN(C(=O)c2cnn(Cc3ccccc3)c2)CC12CN(C(=O)[C@H]1CC1(C)C)C2)[C@@H](C)N(C)CC1CCCCC1 [I-266]
27 | 7.00 to 8.00 | C[C@@H](OCC1CCCCC1)[C@@H](CO)NC(=O)[C@@H]1CN(C(=O)c2cnn(Cc3ccccc3)c2)CC12CN(C(=O)[C@H]1CC1(C)C)C2 [I-135A]
28 | 7.00 to 8.00 | CC1(C)C[C@@H]1C(=O)N1CC2(CN(C(=O)c3cncs3)C[C@H]2C(=O)N[C@@H](COCC2CCCCC2)C(=O)N2CCCCC2)C1 [I-286]
29 | < 5.00 | CC1(C)C[C@@H]1C(=O)N1CC2(CN(C(=O)c3cnn(Cc4ccccc4)c3)C[C@@H]2C(=O)N[C@@H]2CC[C@@H]2O)C1 [I-201A]
30 | < 5.00 | CC1(C)C[C@@H]1C(=O)N1CC2(CN(C(=O)c3cnn(Cc4ccccc4)c3)C[C@H]2C(=O)NCc2ccc(O)nn2)C1 [I-400]
31 | 5.00 to 6.00 | CC1(C)C[C@@H]1C(=O)N1CC2(CN(C(=O)c3cnn(Cc4ccccc4)c3)C[C@@H]2C(=O)Nc2ccc(Cc3ccccc3)cc2)C1 [I-84B]
32 | 5.00 to 6.00 | CNC(=O)[C@@H](NC(=O)C1CN(C(=O)c2cnn(Cc3ccccc3)c2)CC12CN(C(=O)[C@H]1CC1(C)C)C2)[C@@H](C)OCc1ccccn1 (stereo partly drawn) [I-257]
33 | ≥ 8.00 | COC[C@H]1CCCN(C(=O)[C@@H](NC(=O)[C@H]2CN(C(=O)c3cncs3)CC23CN(C(=O)[C@H]2CC2(C)C)C3)[C@@H](C)OCC2CCCCC2)C1 [I-196B]
34 | ≥ 8.00 | C[C@@H](OCC1CCCCC1)[C@H](NC(=O)[C@@H]1CN(C(=O)c2cnn(Cc3ccccc3)c2)CC12CN(C(=O)[C@H]1CC1(C)C)C2)C(=O)NCCC(=O)OC(C)(C)C [I-478]
35 | 5.00 to 6.00 | Cc1ccc(C(C)NC(=O)[C@@H]2CN(C(=O)c3cnn(Cc4ccccc4)c3)CC23CN(C(=O)[C@H]2CC2(C)C)C3)nn1 (stereo partly drawn) [I-366]
36 | < 5.00 | CC1(C)C[C@@H]1C(=O)N1CC2(CN(C(=O)c3cnn(Cc4ccccc4)c3)C[C@H]2C(=O)NC[C@H]2CC[C@@H](C)CC2)C1 [I-388]
37 | 7.00 to 8.00 | C[C@@H](OCc1ccccc1)[C@H](NC(=O)C1CN(C(=O)c2cnn(Cc3ccccc3)c2)CC12CN(C(=O)[C@H]1CC1(C)C)C2)C(=O)N1CC2(CCC2)C1 (stereo partly drawn) [I-106]
38 | < 5.00 | CNC(=O)[C@@H](NC(=O)[C@H]1CN(C(=O)c2cnn(Cc3ccccc3)c2)CC12CN(C(=O)C1CC1(C)C)C2)[C@@H](C)O (stereo partly drawn) [I-88B]
39 | ≥ 8.00 | C[C@@H](OCC1CCCCC1)[C@H](NC(=O)C1CN(C(=O)c2cnn(Cc3ccccc3)c2)CC12CN(C(=O)[C@H]1CC1(C)C)C2)C(=O)N1CCOCC1 (stereo partly drawn) [I-152 mixture]

— patent publication US20240174680A1, “CDK2 INHIBITORS AND METHODS OF USING THE SAME” (Cedilla Therapeutics, Inc., priority 2021, published 2024)
